Earlier results in PMC5896373 (Molecular Pharmacology, 2018).

Biological target: T1, chimeric P2X7/1 receptor 210–217 (Homo sapiens, UniProt Q99572, G211E/I214K/I21V/INS213AAHM/L212V/M24R/N16P/N25R/P210E/Q22R/R20V/S23N/T19I/T217L/Y26L)
T1 construct: expressed in transfected cells; host or cells: Xenopus laevis oocytes (cRNA injection)
T1 sequence (Q99572 with tags, fused parts or gaps N16P/T19I/R20V/I21V/Q22R/S23N/M24R/N25R/Y26L/P210E/G211E/L212V/INS213AAHM/I214K/T217L): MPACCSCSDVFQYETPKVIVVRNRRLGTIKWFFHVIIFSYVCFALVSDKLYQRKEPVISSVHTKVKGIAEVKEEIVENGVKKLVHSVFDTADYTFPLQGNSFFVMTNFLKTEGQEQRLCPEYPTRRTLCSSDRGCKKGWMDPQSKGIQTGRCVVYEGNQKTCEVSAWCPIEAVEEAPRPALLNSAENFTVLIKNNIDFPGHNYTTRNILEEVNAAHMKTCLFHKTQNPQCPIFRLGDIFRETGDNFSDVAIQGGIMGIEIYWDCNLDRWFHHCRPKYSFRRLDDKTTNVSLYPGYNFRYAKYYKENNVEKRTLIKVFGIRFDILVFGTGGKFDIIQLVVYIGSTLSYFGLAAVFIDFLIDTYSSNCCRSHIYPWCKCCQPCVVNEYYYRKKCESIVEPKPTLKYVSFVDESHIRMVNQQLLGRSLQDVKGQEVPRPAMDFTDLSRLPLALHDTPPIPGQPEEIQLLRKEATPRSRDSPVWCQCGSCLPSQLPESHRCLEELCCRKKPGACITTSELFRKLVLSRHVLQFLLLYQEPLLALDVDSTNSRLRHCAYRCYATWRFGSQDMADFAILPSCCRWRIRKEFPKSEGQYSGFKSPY
Design: method as in Allsopp et al., 2017
Details: chimera 210–217; ref Allsopp et al., 2017; cited from earlier work

SMILES: Cl.Cl.O=C(CC12CC3CC(CC(C3)C1)C2)Nc1cccc2nc(NCCNCCO)ccc12 [AZ10606120, N-[2-[[2-[(2-hydroxyethyl)amino]ethyl]amino]-5-quinolinyl]-2-tricyclo[3.3.1.13,7]dec-1-ylacetamide dihydrochloride]
- effect on antagonist sensitivity: no change
